Laboratory results taken from ChEMBL document CHEMBL3272124, “Synthesis of tetrazole ribonucleosides and their evaluation as antiviral agents. 2. 5-Amino-1-(beta-D-ribofuranosyl)-1H-tetrazole and 5-amino-2-(beta-D-ribofuranosyl)-2H-tetrazole” (J Med Chem, 1976).
Activity calls are given as the source filed them. The calls are words filed in the database; no cut-off is given here.

These compounds were tested on Influenza A virus (assay: Antiviral activity against Influenza A virus A2/Asian/J305 infected in Swiss albino mouse assessed as increase in host survival at 50 mg/kg, ip administered as 7 doses immediately before virus inoculation and at 1, 5, 24, 30, 48 and 72 hrs after virus infection measured on 21st day post-infection).
Type: functional, organism-based
Parameters: dose 50 mg/kg

| Compound | Activity |
| --- | --- |
| NC(=O)c1ncn([C@@H]2O[C@H](CO)[C@@H](O)[C@H]2O)n1 | Active |
| Nc1nnn([C@@H]2O[C@H](CO)[C@@H](O)[C@H]2O)n1 | inactive |
| Nc1nnnn1[C@@H]1O[C@H](CO)[C@@H](O)[C@H]1O | inactive |
